Measurements as given in patent US3987198A, “Method for lowering the free fatty acid content in sebum using certain fatty acid amides” (Syntex (U.S.A.) Inc., priority 1975, dated 1976).
Values after ≈ are worked out from the molar mass of the structure shown. Read-outs that look alike come from different tables or passages of the source. Blank lines part the entries; values can stand above or below the compound they belong to.

Experiments:
C. acnes (ATCC No. 6919) = test: Growth inhibition of C. acnes in Fluid Thioglycollate culture tubes; format: cell-based, Corynebacterium acnes; details: for MIC: Cutibacterium acnes, read-out: Inhibitory Concentration at 72 Hours; for Effect on growth of C. acnes: at 200 μg/ml.
Procedure: Culture tubes are prepared containing 10 ml. of freshly prepared Difco Fluid Thioglycollate medium with agar and indicator. […] Each tube is inoculated with 0.2 ml. of a 48 hour culture of C. acnes (ATCC No. 6919), and the tubes are inspected at 24 hour intervals. Incubation at 37° C.

[1] = Double-blind crossover study of 5% oleic acid diethanolamide gel on the face, forehead surface lipids; format: in vivo, human subjects
Description: The subjects were selected on the basis of having a higher than 20 % free fatty acid content in their individual total sebum. None were on systemic antibiotic therapy during the course of this study.
The subjects were instructed to wash three times daily with Ivory soap, immediately after rinsing and drying the face to apply sufficient medication (active agent or placebo) to cover the entire face with the exception of the eye and cheekbone areas, and to gently massage the medication into the skin. Each treatment was continued for the last 6 weeks of the study, no medication being used, however, during the two-week no-treatment period. No other therapy was permitted on the face during the course of the study. No medicated soaps or shampoos, oily hair dressings or any hair sprays were permitted. Cosmetics other than lipstick and eyeshadow were not to be applied on the days of sebum collection. On days of sebum collection, the forehead was not to be washed, wiped, or touched in the 6 hours between the time of cleansing and the time of sebum collection.
Twice a week during the first two weeks of the study, a forehead sample of surface lipids were obtained from each subject and measured for total weight and free fatty acids. No medication or placebo therapy was employed during this two-week period. These samples from each subject constitute the baseline data for this study. Twice a week for the next 6 weeks, further surface lipid samples were taken from each subject and analyzed. In all cases, the surface lipid samples were collected by drawing sebum from both the left and right sides of the subject's forehead.

[2] = target: T1, crude enzyme from cultures of Corynebacterium acnes (ATCC No. 6919) (lipolytic enzymes) (Cutibacterium acnes, UniProt Q59644); test: Inhibition of triolein hydrolysis by Corynebacterium acnes lipolytic enzyme (radiolabelled triolein, TLC of free oleic acid); format: biochemical; details: 60 minutes at room temperature, pH 7.1 phosphate buffer, triolein 2mM; read-out: Concentration Causing 50% Inhibition of Triolein (2mM) Hydrolysis
T1 construct: crude ethanol-acetic acid precipitate of three-day cultures, Sephadex G-25 and G-100 fractions
Procedure: A 1 ml. aliquot of glyceryl trioleate-(9,10)T is separated on TLC (silica gel) in hexane-ether-acetic acid (70:30:1) and the area corresponding to pure triolein is eluted. The radioactive material is diluted with cold, previously purified triolein (8.8639 g.) in 500 ml. of benzene. The resulting solution is 20mM in triolein.
The crude enzyme prepared by ethanol-acetic acid precipitation from three day cultures of Corynebacterium acnes (ATCC No. 6919) is passed successively through Sephadex G-25 and G-100 columns, and the concentrate is diluted to 250 ml. for use in the assay described below.
An emulsion is prepared by evaporating 5.70 ml. of the benzene solution, prepared in Example 1 above; 6 ml. of 10% gum arabic in water and 3.4 ml. of 0.05M phosphate buffer (pH 7.1) are added, and the mixture is sonicated for three 20 second intervals. Aliquots (0.7 ml.) containing […] emulsified triolein are added to each of 10 1/6 dram vials for each compound to be assayed.
Vial No. 1 receives an additional 0.3 ml. buffer at time 0, and acts as 0 control. […]
The hydrolysis is allowed to proceed for 60 minutes at room temperature, after which time, the vials are transferred to a silicone oil bath and maintained at 95° C. […] The areas corresponding to free oleic acid (after visualization with iodine vapor) are scraped directly into scintillation vials and counted. […]

[3] = ATCC6919, 72 hours, 37° C., Difco Fluid Thioglycollate medium
[4] = 5% gel of Example 8, topical three times daily, two-week treatment, 21 subjects

T1 sequence (Q59644 entry or part of it): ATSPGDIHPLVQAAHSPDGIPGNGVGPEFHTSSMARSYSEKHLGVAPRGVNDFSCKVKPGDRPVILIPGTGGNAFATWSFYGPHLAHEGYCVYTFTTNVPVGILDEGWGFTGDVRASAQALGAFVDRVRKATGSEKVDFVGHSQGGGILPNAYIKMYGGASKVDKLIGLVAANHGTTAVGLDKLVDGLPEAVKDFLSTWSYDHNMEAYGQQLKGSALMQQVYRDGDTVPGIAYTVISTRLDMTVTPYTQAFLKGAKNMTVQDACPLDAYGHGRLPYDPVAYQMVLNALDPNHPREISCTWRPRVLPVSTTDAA

MIC (C. acnes (ATCC No. 6919); [3]): ~12.5 µg/mL (≈ 33.6 µM)
Compound: CC(C)CCCCCCCCCCCCCCC(=O)N(CCO)CCO [Isostearic acid diethanolamide]

Compound: CCCCCCCCCCCC(=O)N(CCO)CCO [Lauric acid diethanolamide]
MIC (C. acnes (ATCC No. 6919); ATCC6919, 72 h): ~12.5 µg/mL (≈ 43.5 µM)

MIC (C. acnes (ATCC No. 6919); [3]): ~6.25 µg/mL (≈ 19.8 µM)
Compound: CCCCCCCCCCCCCC(=O)N(CCO)CCO [Myristic acid diethanolamide]

Compound: CCCCCCCC/C=C\CCCCCCCC(=O)N(CCO)CCO [Oleic acid diethanolamide]
MIC (C. acnes (ATCC No. 6919); [3]): ~12.5 µg/mL (≈ 33.8 µM)
free fatty acid values, average lowering versus placebo [1, 4]: 11%
total sebum values, average lowering versus placebo [1, 4]: 8%
carryover effect upon total sebum level ([1]; 5% gel, crossover study): no indication of a carryover effect
overall reduction of average free fatty acid content, end of active treatment versus immediately prior to treatment ([1]; 5% gel, two-week treatment): approximately 20%
Maximum reduction in free fatty acid levels, subject two ([1]; 5% gel, two-week treatment, subject two): 78%
duration of carryover effect upon free fatty acid levels after termination of use ([1]; subjects given active agent before placebo): at least two weeks

Compound: CCCCCCCC/C=C\CCCCCCCC(=O)O [Oleic acid, reference compound]
Effect on growth of C. acnes (C. acnes (ATCC No. 6919); 72 hours): growth stimulatory

MIC (C. acnes (ATCC No. 6919); [3]): ~6.25 µg/mL (≈ 18.2 µM)
Compound: CCCCCCCCCCCCCCCC(=O)N(CCO)CCO [Palmitic acid diethanolamide]

Compound: CCCCCCCC/C=C\CCCCCCCC(=O)OCC(COC(=O)CCCCCCC/C=C\CCCCCCCC)OC(=O)CCCCCCC/C=C\CCCCCCCC [Triolein, reference compound]
Effect on growth of C. acnes (C. acnes (ATCC No. 6919); 72 hours): growth stimulatory

MIC (C. acnes (ATCC No. 6919); [3]): > 300 µg/mL
Compound: C=CCCCCCCCCC(=O)N(CCO)CCO [Undecylenic diethanolamide, reference compound]

Compound: N-morpholinooleamide
IC50 [2]: 700 µM
